In brackets after ≈: the same amount, converted by molar mass.
Tests used:
[1] = system: Klebsiella aerogenes; assay: Antimicrobial activity against multidrug resistant Enterobacter aerogenes isolate 1 by broth dilution method; format: functional
[2] = system: Klebsiella aerogenes; assay: Antimicrobial activity against multidrug resistant Enterobacter aerogenes isolate 2 by broth dilution method; format: functional
[3] = system: Klebsiella aerogenes; assay: Antimicrobial activity against multidrug resistant Enterobacter aerogenes isolate 3 by broth dilution method; format: functional
[4] = system: Klebsiella aerogenes; assay: Antimicrobial activity against multidrug resistant Enterobacter aerogenes isolate 4 by broth dilution method; format: functional
[5] = system: Klebsiella aerogenes; assay: Antimicrobial activity against multidrug resistant Enterobacter aerogenes isolate 5 by broth dilution method; format: functional
[6] = system: Klebsiella aerogenes; assay: Antimicrobial activity against multidrug resistant Enterobacter aerogenes isolate 6 by broth dilution method; format: functional
[7] = system: Klebsiella aerogenes; assay: Antimicrobial activity against multidrug resistant Enterobacter aerogenes isolate 7 by broth dilution method; format: functional
[8] = system: Klebsiella aerogenes; assay: Antimicrobial activity against multidrug resistant Enterobacter aerogenes isolate 8 by broth dilution method; format: functional
[9] = system: Klebsiella aerogenes; assay: Antimicrobial activity against multidrug resistant Enterobacter aerogenes isolate 9 by broth dilution method; format: functional
[10] = system: Klebsiella aerogenes; assay: Antimicrobial activity against multidrug resistant Enterobacter aerogenes isolate 10 by broth dilution method; format: functional
[11] = system: Klebsiella aerogenes; assay: Antimicrobial activity against multidrug resistant Enterobacter aerogenes isolate 11 by broth dilution method; format: functional
[12] = system: Klebsiella aerogenes; assay: Antimicrobial activity against multidrug resistant Enterobacter aerogenes isolate 12 by broth dilution method; format: functional
[13] = system: Klebsiella aerogenes; assay: Antimicrobial activity against multidrug resistant Enterobacter aerogenes isolate 13 by broth dilution method; format: functional
[14] = system: Klebsiella aerogenes; assay: Antimicrobial activity against multidrug resistant Enterobacter aerogenes isolate 14 by broth dilution method; format: functional
[15] = system: Klebsiella aerogenes; assay: Antimicrobial activity against multidrug resistant Enterobacter aerogenes isolate 15 by broth dilution method; format: functional
[16] = system: Klebsiella aerogenes; assay: Antimicrobial activity against multidrug resistant Enterobacter aerogenes isolate 16 by broth dilution method; format: functional
[17] = system: Klebsiella aerogenes; assay: Antimicrobial activity against multidrug resistant Enterobacter aerogenes isolate 17 by broth dilution method; format: functional
[18] = system: Klebsiella aerogenes; assay: Antimicrobial activity against multidrug resistant Enterobacter aerogenes isolate 18 by broth dilution method; format: functional
[19] = system: Klebsiella aerogenes; assay: Antimicrobial activity against multidrug resistant Enterobacter aerogenes isolate 19 by broth dilution method; format: functional
[20] = system: Klebsiella aerogenes; assay: Antimicrobial activity against multidrug resistant Enterobacter aerogenes isolate 20 by broth dilution method; format: functional
[21] = system: Klebsiella aerogenes; assay: Antimicrobial activity against multidrug resistant Enterobacter aerogenes isolate 21 by broth dilution method; format: functional
[22] = system: Klebsiella aerogenes; assay: Antimicrobial activity against multidrug resistant Enterobacter aerogenes isolate 22 by broth dilution method; format: functional
[23] = system: Klebsiella aerogenes; assay: Antimicrobial activity against multidrug resistant Enterobacter aerogenes isolate 23 by broth dilution method; format: functional
[24] = system: Klebsiella aerogenes; assay: Antimicrobial activity against multidrug resistant Enterobacter aerogenes isolate 24 by broth dilution method; format: functional
[25] = system: Klebsiella aerogenes; assay: Antimicrobial activity against multidrug resistant Enterobacter aerogenes isolate 25 by broth dilution method; format: functional
[26] = system: Klebsiella aerogenes; assay: Antimicrobial activity against multidrug resistant Enterobacter aerogenes isolate 26 by broth dilution method; format: functional
[27] = system: Klebsiella aerogenes; assay: Antimicrobial activity against multidrug resistant Enterobacter aerogenes isolate 27 by broth dilution method; format: functional
[28] = system: Klebsiella pneumoniae; assay: Antimicrobial activity against multidrug resistant Klebsiella pneumoniae ATCC 11296 by broth dilution method; format: functional
[29] = system: Klebsiella pneumoniae; assay: Antimicrobial activity against multidrug resistant Klebsiella pneumoniae isolate 1 by broth dilution method; format: functional
[30] = system: Klebsiella pneumoniae; assay: Antimicrobial activity against multidrug resistant Klebsiella pneumoniae isolate 2 by broth dilution method; format: functional
[31] = system: Klebsiella pneumoniae; assay: Antimicrobial activity against multidrug resistant Klebsiella pneumoniae isolate 3 by broth dilution method; format: functional
[32] = system: Klebsiella pneumoniae; assay: Antimicrobial activity against multidrug resistant Klebsiella pneumoniae isolate 4 by broth dilution method; format: functional
[33] = system: Klebsiella pneumoniae; assay: Antimicrobial activity against multidrug resistant Klebsiella pneumoniae isolate 5 by broth dilution method; format: functional
[34] = system: Klebsiella pneumoniae; assay: Antimicrobial activity against multidrug resistant Klebsiella pneumoniae isolate 6 by broth dilution method; format: functional
[35] = system: Klebsiella pneumoniae; assay: Antimicrobial activity against multidrug resistant Klebsiella pneumoniae isolate 7 by broth dilution method; format: functional
[36] = system: Klebsiella pneumoniae; assay: Antimicrobial activity against multidrug resistant Klebsiella pneumoniae isolate 8 by broth dilution method; format: functional
[37] = system: Klebsiella pneumoniae; assay: Antimicrobial activity against multidrug resistant Klebsiella pneumoniae isolate 9 by broth dilution method; format: functional
[38] = system: Klebsiella pneumoniae; assay: Antimicrobial activity against multidrug resistant Klebsiella pneumoniae isolate 10 by broth dilution method; format: functional
[39] = system: Klebsiella pneumoniae; assay: Antimicrobial activity against multidrug resistant Klebsiella pneumoniae isolate 11 by broth dilution method; format: functional
[40] = system: Klebsiella pneumoniae; assay: Antimicrobial activity against multidrug resistant Klebsiella pneumoniae isolate 12 by broth dilution method; format: functional
[41] = system: Klebsiella pneumoniae; assay: Antimicrobial activity against multidrug resistant Klebsiella pneumoniae isolate 13 by broth dilution method; format: functional
[42] = system: Klebsiella pneumoniae; assay: Antimicrobial activity against multidrug resistant Klebsiella pneumoniae isolate 14 by broth dilution method; format: functional
[43] = system: Klebsiella pneumoniae; assay: Antimicrobial activity against multidrug resistant Klebsiella pneumoniae isolate 15 by broth dilution method; format: functional
[44] = system: Klebsiella pneumoniae; assay: Antimicrobial activity against multidrug resistant Klebsiella pneumoniae isolate 16 by broth dilution method; format: functional
[45] = system: Klebsiella aerogenes; assay: Antimicrobial activity against multidrug resistant Enterobacter aerogenes ATCC 15038 by broth dilution method; format: functional
[46] = system: Klebsiella aerogenes; assay: Antimicrobial activity against multidrug resistant Enterobacter aerogenes ATCC 15038 harboring pDrive plasmid by broth dilution method; format: functional
[47] = system: Klebsiella aerogenes; assay: Antimicrobial activity against multidrug resistant Enterobacter aerogenes ATCC 15038 harboring pACM204 plasmid by broth dilution method; format: functional
[48] = system: Klebsiella aerogenes; assay: Antimicrobial activity against multidrug resistant Enterobacter aerogenes ATCC 15038 harboring pDrive plasmid expressing ampC gene by broth dilution method; format: functional
[49] = system: Escherichia coli; assay: Antimicrobial activity against multidrug resistant Escherichia coli ATCC 35218 by broth dilution method; format: functional
[50] = system: Escherichia coli; assay: microbe, parasite or virus in culture; details: DH5[alpha]
Description: Antimicrobial activity against multidrug resistant Escherichia coli DH5[alpha] by broth dilution method

[51] = system: Escherichia coli; assay: microbe, parasite or virus in culture; details: DH5[alpha]; remark: listed apart in the source
Description: Antimicrobial activity against multidrug resistant Escherichia coli DH5[alpha] harboring pDrive plasmid by broth dilution method

[52] = system: Escherichia coli; assay: microbe, parasite or virus in culture; details: DH5[alpha]; remark: listed apart in the source
Description: Antimicrobial activity against multidrug resistant Escherichia coli DH5[alpha] harboring pDrive plasmid expressing ampC gene by broth dilution method

[53] = system: Escherichia coli; assay: microbe, parasite or virus in culture; details: DH5[alpha]; remark: listed apart in the source
Description: Antimicrobial activity against multidrug resistant Escherichia coli DH5[alpha] harboring pACM204 plasmid by broth dilution method

[54] = system: Escherichia coli; assay: microbe, parasite or virus in culture; details: ATCC 35218
Description: Antimicrobial activity against multidrug resistant Escherichia coli ATCC 35218 harboring pDrive plasmid by broth dilution method

[55] = system: Escherichia coli; assay: microbe, parasite or virus in culture; details: ATCC 35218; remark: listed apart in the source
Description: Antimicrobial activity against multidrug resistant Escherichia coli ATCC 35218 harboring pDrive plasmid expressing ampC gene by broth dilution method

CC(C)(O/N=C(\C(=O)N[C@@H]1C(=O)N2C(C(=O)[O-])=C(C[n+]3ccccc3)CS[C@H]12)c1csc(N)n1)C(=O)O [CEFTAZIDIME]
MIC [1]: > 2050 µg/mL
MIC [2]: > 2050 µg/mL
MIC [3]: > 2050 µg/mL
MIC [4]: > 2050 µg/mL
MIC [5]: > 2050 µg/mL
MIC [6]: 256 µg/mL (≈ 0.468 mM)
MIC [7]: > 2050 µg/mL
MIC [8]: > 2050 µg/mL
MIC [9]: > 2050 µg/mL
MIC [10]: > 2050 µg/mL
MIC [11]: > 2050 µg/mL
MIC [12]: > 2050 µg/mL
MIC [13]: > 2050 µg/mL
MIC [14]: > 2050 µg/mL
MIC [15]: > 2050 µg/mL
MIC [16]: > 2050 µg/mL
MIC [17]: > 2050 µg/mL
MIC [18]: 1020 µg/mL (≈ 1.87 mM)
MIC [19]: > 2050 µg/mL
MIC [20]: > 2050 µg/mL
MIC [21]: > 2050 µg/mL
MIC [22]: > 2050 µg/mL
MIC [23]: 2050 µg/mL (≈ 3.75 mM)
MIC [24]: > 2050 µg/mL
MIC [25]: > 2050 µg/mL
MIC [26]: 1020 µg/mL (≈ 1.87 mM)
MIC [27]: > 2050 µg/mL
MIC [28]: 0.5 µg/mL (≈ 0.000915 mM)
MIC [29]: 2050 µg/mL (≈ 3.75 mM)
MIC [30]: 2050 µg/mL (≈ 3.75 mM)
MIC [31]: > 2050 µg/mL
MIC [32]: > 2050 µg/mL
MIC [33]: > 2050 µg/mL
MIC [34]: 32 µg/mL (≈ 0.0585 mM)
MIC [35]: > 2050 µg/mL
MIC [36]: > 2050 µg/mL
MIC [37]: > 2050 µg/mL
MIC [38]: > 2050 µg/mL
MIC [39]: > 2050 µg/mL
MIC [40]: 16 µg/mL (≈ 0.0293 mM)
MIC [41]: 16 µg/mL (≈ 0.0293 mM)
MIC [42]: 16 µg/mL (≈ 0.0293 mM)
MIC [43]: > 2050 µg/mL
MIC [44]: 2050 µg/mL (≈ 3.75 mM)
MIC [45]: 0.25 µg/mL (≈ 0.000457 mM)
MIC [46]: 0.5 µg/mL (≈ 0.000915 mM)
MIC [47]: 64 µg/mL (≈ 0.117 mM)
MIC [48]: 64 µg/mL (≈ 0.117 mM)
MIC [49]: 0.125 µg/mL (≈ 0.000229 mM)
MIC [50]: 2 µg/mL (≈ 0.00366 mM)
MIC [51]: 2 µg/mL (≈ 0.00366 mM)
MIC [52]: 32 µg/mL (≈ 0.0585 mM)
MIC [53]: 32 µg/mL (≈ 0.0585 mM)
MIC [54]: 0.5 µg/mL (≈ 0.000915 mM)
MIC [55]: 16 µg/mL (≈ 0.0293 mM)

— ChEMBL document CHEMBL1649134, “Occurrence of efflux mechanism and cephalosporinase variant in a population of Enterobacter aerogenes and Klebsiella pneumoniae isolates producing extended-spectrum beta-lactamases” (2009)
